# Reference: patent publication US9211420B2, “Kit containing photosensitizing dyes” (Colgate-Palmolive Company, priority 2009, dated 2015)
# “Also recorded” adds a separate entry of the source.
# Test system: TNFα of HEPM cells stimulated by IL-1β
# Experiment: Cytokine concentration in IL-1β-stimulated cell culture after light plus photosensitizing dye
# Type: cell-based, human
# Details: Fast Green at 1000 ppm combined with light at 625 nm for 2 minutes (9 mW/cm^2, 1.1 J/cm^2)
# Description: Cells used in this example include human embryonic palatal mesenchymal (HEFM) cells and oral keratinocytes OBA9 cells. The embodiments also can be used with other cells such as human gingival fibroblasts (HGF). Cells were seeded in 24-well plates and cultured until reaching a confluence above 80%. The confluent-stage cells were treated with stimulants such as IL-1β followed by light irradiation alone, or light irradiation combined with GRAS photosensitizing dye. The cells were either pre-incubated in photosensitizing dye before light exposure, or administered at the same time of light exposure. The cells were incubated in photosensitizing dyes for varied amounts of time, the concentration of photosensitizing dyes were varied, and the cell were irradiated with light for varied amounts of time per exposure, as well as irradiation either one time or multiple times, as described below. After irradiation, the cells were incubated at 37° C. The cell culture media was collected after a certain amount of time for cytokine analysis. The results tabulated below reveal that visible light (various wavelength, 380-700 nm) alone and photosensitizing dye irradiated with visible light (various wavelength, 380-700 nm) have anti-inflammation effect. […]
smiles,measurement,value
"CCN(Cc1cccc(S(=O)(=O)[O-])c1)c1ccc(C(=C2C=CC(=[N+](CC)Cc3cccc(S(=O)(=O)[O-])c3)C=C2)c2ccc(O)cc2S(=O)(=O)[O-])cc1.[Na+].[Na+] [Fast Green, Fast Green FCF (FD&C Green No. 3)]",Effect on TNFα concentration in the in vitro cell culture,can decrease pro-inflammation cytokine TNFα concentration; also recorded: can reduce concentration of TNFα
